We go through six compounds from PMC8269107, “Lipidation of Temporin-1CEb Derivatives as a Tool for Activity Improvement, Pros and Cons of the Approach” (International Journal of Molecular Sciences, 2021).

The subject of one experiment is B. cereus PCM 482. The experiment can be described thus: MIC, broth microdilution. Format: cell-based, Bacillus cereus. The conditions noted are these: B. cereus PCM 482, 24 h. From the text: (§1) Escherichia coli (PCM 2057 = ATCC 25922), Staphylococcus aureus (PCM 2054 = ATCC 25923), Staphylococcus epidermidis (PCM 2118 = ATCC 14990), Bacillus subtilis (PCM 2224 = ATCC 9799), Bacillus cereus (PCM 482 = ATCC 10702) and Pseudomonas aeruginosa (PCM 499 = ATCC 10145) were obtained from the Polish Collection of Microorganisms. Fungi strains Candida albicans (CCM 8186 = CNTC 49/64), Candida glabrata (CCM 8270 = ATCC 90030), Candida parapsilosis (CCM 8260 = ATCC 22019) and Candida krusei (CCM 8271 = ATCC 6258) were acquired from the Czech Collection of Microorganisms. S. aureus USA300 (wild type strain), the reference strain of Klebsiella pneumoniae (ATCC 13883) and clinical isolates of Pseudomonas aeruginosa (PA1, PA2) collected from nonrelated patients admitted to the Stefan Zeromski Specialist Municipal Hospital in Krakow (Poland) were kindly provided by the research group of the Department of Microbiology, Faculty of Biochemistry, Biophysics and Biotechnology, Jagiellonian University, Krakow, Poland.
(§2) Luria-Bertani broth (LB) and Sabouraud Dextrose broth (SB) (Biocorp, Poland) were used for cultivation of bacteria and fungi strains, respectively. The antimicrobial activity of the peptides were analyzed through determination of MIC (minimal inhibitory concentration) parameters according to Clinical and Laboratory Standards (CLSI) guidelines developed for aerobic bacteria and yeasts, respectively. Mueller-Hinton broth (MHB) was used as the working medium for all bacterial strains, while in the case of fungi, RPMI-1640 (with L-glutamine, without sodium bicarbonate) growth medium buffered with MOPS (morpholinepropanesulfonic acid) and supplemented with 2% glucose was used. Inoculum was prepared from freshly grown cultures of microorganisms at their exponential phase of growth. […] Plates were then incubated for 24 h at 37 °C in the case of bacteria and at 35 °C in the case of fungi. After that time, absorbance was read at 590 nm with a Perkin Elmer plate reader. Cultures without peptide were treated as positive control, while uninoculated media were defined as negative control. All measurements were run at least in triplicate.

The next experiment relates to P. aeruginosa PCM 499. In words: MIC, broth microdilution. Format: cell-based, Pseudomonas aeruginosa. The conditions noted are these: P. aeruginosa PCM 499, 24 h.
Description: as §1, §2
In general terms: Dilution methods test growth across graded concentrations, often in twofold steps.

Experiment [1] deals with C. albicans (CCM 8186) biofilm. In words: Biofilm eradication assay, pre-formed 24 h old biofilm (MTT). The class given is cell-based, Candida albicans. The conditions noted are these: C. albicans pre-formed 24 h old biofilm, 24 h treatment. Here is the method:
In the case of yeasts, the overnight culture of C. albicans in Sabouraud dextrose broth (SB) was used for inoculum preparation. Similar to above, 5 mL of 24 h culture was centrifuged, washed with PBS and then suspended in sterile RPMI-1640 medium (with L-glutamine, without sodium bicarbonate) supplemented with 2% glucose (RPMI-1640/+G) yielding the amount of about 1 × 10^7 cells per ml. Subsequently, 200 µL of yeast suspension was transferred into each well of a microtiter plate, and it was incubated stationary for the next 24 h at 35 °C.
(§3) After that, each well of the plates containing bacterial or fungi biofilm was washed three times with PBS in order to remove all non-adherent cells. Then, peptide solutions of 200 µL ranging from 50 to 0,39 µg/mL prepared in TSB +/G in the case of experiments on S. aureus biofilm, and (RPMI-1640/+G) in the case of C. alibcans, were prepared and transferred into the microtiter plates. After the addition of the peptides, the experiments were continued for the next 24 h.
(§4) The reduction in biofilm viability was analyzed by means of MTT assay. Briefly, 20 μL of MTT solution (5 mg/mL in PBS) was added to prewashed wells with exchanged medium (180 μL of fresh medium) wells containing bacterial/yeast biofilms. Plates were then incubated in the dark for the next 3 h at 37 °C. After that time, the medium was replaced with 6 mM HCl in isopropanol and, when the reduced MTT was fully dissolved, the plates were read at 570 nm. Activity against fully developed 24 h old biofilm was described as biofilm eradication concentration (BEC50 expressed in µg/mL), which corresponded to the concentration of the compound able to reduce 50% of biofilm viability compared with the growth control.

Another experiment deals with C.albicans CCM 8186. In words: MIC, broth microdilution. The class given is cell-based, Candida albicans. The note with it: for MIC100: C.albicans CCM 8186, 24 h.
Description: as §1, §2

A further experiment concerns B. subtilis PCM 2224. The experiment can be described thus: MIC, broth microdilution. The class given is cell-based, Bacillus subtilis. The conditions noted are these: B. subtilis PCM 2224, 24 h.
Description: as §1, §2

The subject of experiment [2] is C. albicans (CCM 8186) biofilm. In words: Biofilm inhibition assay (MTT). The conditions noted are these: C. albicans biofilm development, 24 h post-inoculation. The class given is cell-based, Candida albicans. How it is done:
In the case of bacteria, an overnight culture of S. aureus in Tryptic Soy Broth (TSB) supplemented with 2% glucose (TSB/+G) was used to prepare inoculum for the experiments. Briefly, 5 mL of 24 h culture was centrifuged at 5000× g, washed with sterile PBS and suspended in a fresh 2 × concentrated TSB/+G. In the case of yeasts, the overnight culture of C. albicans in Sabouraud dextrose broth (SB) was used for inoculum preparation. Similar to above, 5 mL of 24 h culture was centrifuged, washed with PBS and then suspended in sterile 2 × concentrated RPMI-1640 medium (with L-glutamine, without sodium bicarbonate) supplemented with 2% glucose (RPMI-1640/+G). In both cases, the cell concentration of the inoculum was about 1 × 10^7 cells per ml.
For the determination of the inhibitory concentration that reduced biofilm development by 50% (BIC50^, expressed in µg/mL), 100 µL inoculum in 2 × concentrated RPMI-1640/+G medium (in the case of C. albicans) or 2 x concentrated TSB/+G broth (in the case of S. aureus) was transferred to each well of 96-well plates containing 100 µL of serially diluted in water tested compounds. The final concentrations of the compounds were the same as those used in MIC determination studies. The 96-well plates were then incubated for 24 h at 37 °C and 35 °C in the case of bacteria and fungi, respectively. Viability of the microorganisms in the presence of the tested compounds was analyzed by means of MTT assay.
as §4

In experiment [3] the test system is S. aureus (PCM 2054) biofilm. In words: Biofilm eradication assay, pre-formed 24 h old biofilm (MTT). The conditions noted are these: S. aureus pre-formed 24 h old biofilm, 24 h treatment. Format: cell-based, Staphylococcus aureus. How it is done: Biofilm eradication activity of the synthesized compounds was analyzed against 24 h old biofilms of S. aureus and C. albicans. In the case of bacteria, an overnight culture of S. aureus in Tryptic Soy Broth (TSB) supplemented with 2% glucose (TSB/+G) was used to prepare inoculum for the experiments. Briefly, 5 mL of 24 h culture was centrifuged at 5000× g, washed with sterile PBS and suspended in a fresh TSB/+G. The bacterial suspension was then diluted in a fresh growth medium to obtain the final concentration of colonies of about 1 × 10^7 cells per ml. Further, 200 μL of the inoculum was transferred to each well of 96-well sterile polystyrene flat-bottomed plate, and bacteria were then incubated for the next 24 h without shaking at 37 °C.
as §3, §4

In brackets after ≈: the same amount, converted by molar mass. Where a SMILES comes first, the peptide text is derived from it. [ ]: non-standard residue; d: D form. The star is where a group is joined. Lauroyl = CCCCCCCCCCCC(=O)*; Pentanoyl = CCCCC(=O)*; AEEA = NCCOCCOCC(=O)O; Ahx = NCCCCCC(=O)O; βAla = NCCC(=O)O

For the compound `CC[C@H](C)[C@H](NC(=O)CCCCCN)C(=O)N[C@@H](CCCCN)C(=O)N[C@@H](CCCCN)C(=O)N[C@H](C(=O)N[C@@H](CC(C)C)C(=O)N[C@@H](CO)C(=O)N[C@@H](CCCCN)C(=O)N[C@H](C(=O)N[C@@H](CCCCN)C(=O)N[C@@H](CCCCN)C(=O)N[C@@H](CC(C)C)C(=O)N[C@@H](CC(C)C)C(N)=O)[C@@H](C)CC)[C@@H](C)CC` [AHX-DK5] (H-[Ahx]IKKILSKIKKLL-NH2), the MIC100 in the experiment on B. cereus PCM 482 came out at 50 mg/L (≈ 32.5 µM); in the experiment on P. aeruginosa PCM 499, 25 mg/L (≈ 16.3 µM); against C.albicans CCM 8186, 12.5 mg/L (≈ 8.13 µM); against B. subtilis PCM 2224 it was 0.78 mg/L (≈ 0.507 µM). Besides, the BEC50 in experiment [1] and in experiment [3] was 25 µg/mL each time. Further, the BIC50 in experiment [2] was found to be 25 µg/mL.

On to `CCCCCCCCCCCC(=O)NCCC(=O)N[C@@H](Cc1c[nH]cn1)C(=O)NCCOCCOCC(=O)N[C@H](C(=O)N[C@@H](CCCCN)C(=O)N[C@@H](CCCCN)C(=O)N[C@H](C(=O)N[C@@H](CC(C)C)C(=O)N[C@@H](CO)C(=O)N[C@@H](CCCCN)C(=O)N[C@H](C(=O)N[C@@H](CCCCN)C(=O)N[C@@H](CCCCN)C(=O)N[C@@H](CC(C)C)C(=O)N[C@@H](CC(C)C)C(N)=O)[C@@H](C)CC)[C@@H](C)CC)[C@@H](C)CC` [C12-CAR-PEG-DK5] ({Lauroyl-βAla}-H[AEEA]IKKILSKIKKLL-NH2), for which the MIC100 was >50 mg/L against B. cereus PCM 482, 12.5 mg/L (≈ 6.38 µM) against P. aeruginosa PCM 499, 12.5 mg/L (≈ 6.38 µM) in the experiment on C.albicans CCM 8186 and 3.13 mg/L (≈ 1.6 µM) against B. subtilis PCM 2224. In experiment [1], this compound registered a BEC50 of 12.5 µg/mL.

As for `CC[C@H](C)[C@H](NC(=O)COCCOCCNC(=O)[C@H](Cc1c[nH]cn1)NC(=O)CCN)C(=O)N[C@@H](CCCCN)C(=O)N[C@@H](CCCCN)C(=O)N[C@H](C(=O)N[C@@H](CC(C)C)C(=O)N[C@@H](CO)C(=O)N[C@@H](CCCCN)C(=O)N[C@H](C(=O)N[C@@H](CCCCN)C(=O)N[C@@H](CCCCN)C(=O)N[C@@H](CC(C)C)C(=O)N[C@@H](CC(C)C)C(N)=O)[C@@H](C)CC)[C@@H](C)CC` [CAR-PEG-DK5] (H-[βAla]H[AEEA]IKKILSKIKKLL-NH2; N-terminus and C-terminus assumed), the MIC100 is >50 mg/L in the experiment with B. cereus PCM 482, 50 mg/L (≈ 28.1 µM) in the experiment on P. aeruginosa PCM 499, 15.6 mg/L (≈ 8.78 µM) against C.albicans CCM 8186 and 3.9 mg/L (≈ 2.19 µM) against B. subtilis PCM 2224. For the same compound, the BEC50 in experiment [1] and in experiment [3] was >50 µg/mL throughout. Also, in experiment [2], the BIC50 is 50 µg/mL.

With `CCCCC(=O)N[C@H](C(=O)N[C@@H](CCCCN)C(=O)N[C@@H](CCCCN)C(=O)N[C@H](C(=O)N[C@@H](CC(C)C)C(=O)N[C@@H](CO)C(=O)N[C@@H](CCCCN)C(=O)N[C@H](C(=O)N[C@@H](CCCCN)C(=O)N[C@@H](CCCCN)C(=O)N[C@@H](CC(C)C)C(=O)N[C@@H](CC(C)C)C(N)=O)[C@@H](C)CC)[C@@H](C)CC)[C@@H](C)CC` [Compound C5-DK5] (Pentanoyl-IKKILSKIKKLL-NH2), the MIC100 in the experiment on B. cereus PCM 482 is 12.5 mg/L (≈ 8.29 µM); in the experiment on P. aeruginosa PCM 499, 25 mg/L (≈ 16.6 µM); against C.albicans CCM 8186, 6.25 mg/L (≈ 4.14 µM); with B. subtilis PCM 2224, 0.78 mg/L (≈ 0.517 µM). In addition, the BEC50 in experiment [1] is recorded as 12.5 µg/mL; in experiment [3] it was >50 µg/mL. In addition, the BIC50 in experiment [2] is recorded as 10 µg/mL.

Consider `CC[C@H](C)[C@H](NC(=O)COCCOCCNC(=O)[C@H](Cc1c[nH]cn1)NC(=O)CCNC(=O)CCCCCN)C(=O)N[C@@H](CCCCN)C(=O)N[C@@H](CCCCN)C(=O)N[C@H](C(=O)N[C@@H](CC(C)C)C(=O)N[C@@H](CO)C(=O)N[C@@H](CCCCN)C(=O)N[C@H](C(=O)N[C@@H](CCCCN)C(=O)N[C@@H](CCCCN)C(=O)N[C@@H](CC(C)C)C(=O)N[C@@H](CC(C)C)C(N)=O)[C@@H](C)CC)[C@@H](C)CC` [AHX-CAR-PEG-DK5] (H-[Ahx][βAla]H[AEEA]IKKILSKIKKLL-NH2), for which the MIC100 is >50 mg/L against B. cereus PCM 482, >50 mg/L against P. aeruginosa PCM 499, >50 mg/L against C.albicans CCM 8186 and 6.25 mg/L (≈ 3.31 µM) against B. subtilis PCM 2224. The BEC50 in experiment [1] is 20 µg/mL; in experiment [3] it was >50 µg/mL. Further, the BIC50 in experiment [2] was >50 µg/mL.

In the case of `CCCCCCCCCCCC(=O)N[C@H](C(=O)N[C@@H](CCCCN)C(=O)N[C@@H](CCCCN)C(=O)N[C@H](C(=O)N[C@@H](CC(C)C)C(=O)N[C@@H](CO)C(=O)N[C@@H](CCCCN)C(=O)N[C@H](C(=O)N[C@@H](CCCCN)C(=O)N[C@@H](CCCCN)C(=O)N[C@@H](CC(C)C)C(=O)N[C@@H](CC(C)C)C(N)=O)[C@@H](C)CC)[C@@H](C)CC)[C@@H](C)CC` [Compound C12-DK5] (Lauroyl-IKKILSKIKKLL-NH2), the MIC100 against B. cereus PCM 482 worked out at 12.5 mg/L (≈ 7.78 µM); against P. aeruginosa PCM 499, 12.5 mg/L (≈ 7.78 µM); in the experiment with C.albicans CCM 8186, 3.13 mg/L (≈ 1.95 µM); with B. subtilis PCM 2224, 0.78 mg/L (≈ 0.486 µM). Further, the “fold improved activity in comparison to the parent DK5” value in the experiment on C.albicans CCM 8186 (C. albicans, MIC) is listed as “about 10 fold”. Also, in experiment [2], the BIC50 is 6.25 µg/mL. In addition, in experiment [3], the BEC50 was 6.25 µg/mL.
